A word on the EC50: it is the concentration at which the effect is half-maximal.

Two compounds from patent US11633497B2, “Anti-c-Met antibody drug conjugates” (AbbVie Inc., priority 2021, dated 2023) can be followed below.

The subject of assay [1] is Calu-6 cells (lung adenocarcinoma). As to the kind of experiment: Cell proliferation, CellTiter-Glo luminescence, Calu-6. Format: cell-based. The note with it: Homo sapiens. The procedure: The effect of TOP1i drugs on cell viability was assessed by monitoring ATP presence for metabolically active cells. Proliferation of Calu-6 cells (lung adenocarcinoma) and A375 cells (malignant melanoma) were quantified using CellTiter-Glo® luminescence.
On the technique in general: ATP-based viability assays read luminescence as a measure of living cells.

For assay [2], the system named is A375 cells (malignant melanoma). As to the kind of experiment: Cell proliferation, CellTiter-Glo luminescence, A375. Format: cell-based. The following applies: Homo sapiens, A-375, read-out: TOP1i Compound Potency EC50, A375. An excerpt:
Proliferation of Calu-6 cells (lung adenocarcinoma) and A375 cells (malignant melanoma) were quantified using CellTiter-Glo® luminescence.

Each structure is given as a SMILES string. Where two headings read alike, the source gives them in different places.

Take `CC[C@@]1(O)C(=O)OCc2c1cc1n(c2=O)Cc2c-1nc1cc3c(cc1c2C12CC(N)(C1)C2)OCO3` [Example 1G, (7S)-14-(3-aminobicyclo[1.1.1]pentan-1-yl)-7-ethyl-7-hydroxy-2H,10H-[1,3]dioxolo[4,5-g]pyrano[3′,4′:6,7]indolizino[1,2-b]quinoline-8,11(7H,13H)-dione]: the EC50 in assay [1] (Calu-6, read-out: TOP1i Compound Potency EC50, Calu-6) turned out to be 570 pM; in assay [2], 500 pM.

As for `CCc1c2c(nc3ccc(O)cc13)-c1cc3c(c(=O)n1C2)COC(=O)[C@]3(O)CC` [SN-38, reference compound], the EC50 in assay [1] (Calu-6 cell viability, CellTiter-Glo, read-out: TOP1i Compound Potency EC50, Calu-6) came to 6580 pM.
